What was measured:
[1] = test system: primary AML patient samples; assay: Methylcellulose colony formation assay, primary AML cells; format: cell-based, human; conditions: 5 μM, primary AML patient samples n=7, 7 days
Protocol: FIG. 2. Tigecycline induces cell death and inhibits clonogenic growth in primary AML cells preferential over normal hematopoietic cells. Mononuclear cells from peripheral blood of leukemia patients (blast count>80%) and normal G-CSF expanded donors was treated with increasing concentrations of tigecycline for 48 hours. Cell viability was measured by Annexin-PI flow cytometry staining. Cell viability is expressed as a mean percentage plus or minus SD (n=3) relative to DMSO-treated cells. Mononuclear cells from primary AML patient samples (A, B) and normal peripheral blood cells (C) were plated in methylcelluose with 5 μM of Tigecycline. (D) Colony forming units were counted at 7 days (AML) and 14 days (Normal) post plating. […]
To assess clonogenic growth, primary AML cells (1.0×10^5/mL) or granulocyte colony-stimulating factor (G-CSF) mobilized PBSCs (1.0×10^5/mL) were plated in duplicate with increasing concentrations of tigecycline in MethoCult GF H4434 medium (StemCell Technologies, Vancouver, BC) containing 1% methycellulose in IMDM, 30% FCS, 1% bovine serum albumin, 3 U/mL of recombinant human erythropoietin, 10^−4 M of 2-mercaptoethanol, 2 mM of L-glutamine, 50 ng/mL of recombinant human stem cell factor, 10 ng/mL of GM-CSF, and 10 ng/mL of rh IL-3). Seven days (AML samples) or 14 days (normal PBCS) after plating, the number of colonies was counted as previously described^31.

[2] = test system: OCI-AML2 human leukemia cells; format: in vivo, SCID mice
Protocol: FIG. 3. Tigecycline has anti-leukemia activity in vivo. (A, B) Human leukemia cells (OCI-AML2) were injected subcutaneously into the flank of SCID mice. Seven days after injection, once tumors were palpable, mice were treated with tigecycline (50 mg/kg or 100 mg/kg twice daily by i.p. injection) or vehicle control (n=10 per group). Fourteen days after injection of cells, mice were sacrificed, tumors excised and the volume and mass of the tumors were measured. The tumor mass and the mean volume+SD are shown. Differences in tumor volume and mass were analyzed by an unpaired t-test: *p<0.001. (C) Tumours from two control mice, and three tigecycline-treated mice were excised after 5 days of treatment and total proteins were extracted and analyzed by western blotting for Cox-1, Cox-2, Cox-4, and tubulin. (D) Primary cells from three AML patients were injected intra-femorally into the right femur of female sub-lethally irradiated NOD/SCID mice. Three weeks after injection mice were treated with tigecycline (100 mg/kg by i.p. injection daily) or vehicle control (n=10 per group) for three weeks. Following treatment, human leukemia cell engraftment in the injected right femur was measured by FACS analysis for human CD45^+CD19^−CD33^+ cells. Data represent mean±SD of engrafted human cells. Cells from one patient experiment were used to assess secondary engraftment in a second generation of NOD/SCID mice. Equal numbers of viable leukemia cells from bone marrow of control and tigecycline treated mice were injected into irradiated NOD/SCID mice, which were not treated with tigecycline. Six weeks later, human leukemia cell engraftment in the injected right femur was measured by FACS analysis for human CD45^+CD19^−CD33^+cells. (*p<0.005, Student's t-test).
OCI-AML2 human leukemia cells (1×10^6) were injected subcutaneously into the flanks of SCID mice (Ontario Cancer Institute, Toronto, ON). Seven days after injection, once tumours were palpable, mice were treated with tigecycline twice daily (50 mg/kg or 100 mg/kg by i.p. injection) or vehicle control (n=10 per group) for 14 days. Tumor volume (tumor length x width^2×0.5236) was measured three times a week using calipers. Twenty-one days after injection of cells, mice were sacrificed, tumors excised and the volume and mass of the tumors were measured.
Given the effects of tigecycline as a potential anti-leukemia agent, tigecycline in mouse models of leukemia was evaluated. To evaluate the anti-tumor efficacy of tigecycline in vivo, human OCI-AML2 leukemia cells were injected into the flank of SCID mice. […] Tumor volume and mass were measured over time (FIG. 3A, B). […]

primary human AML cells = format: in vivo, NOD-SCID mice
Protocol: FIG. 3. Tigecycline has anti-leukemia activity in vivo. (A, B) Human leukemia cells (OCI-AML2) were injected subcutaneously into the flank of SCID mice. Seven days after injection, once tumors were palpable, mice were treated with tigecycline (50 mg/kg or 100 mg/kg twice daily by i.p. injection) or vehicle control (n=10 per group). Fourteen days after injection of cells, mice were sacrificed, tumors excised and the volume and mass of the tumors were measured. The tumor mass and the mean volume+SD are shown. Differences in tumor volume and mass were analyzed by an unpaired t-test: *p<0.001. (C) Tumours from two control mice, and three tigecycline-treated mice were excised after 5 days of treatment and total proteins were extracted and analyzed by western blotting for Cox-1, Cox-2, Cox-4, and tubulin. […] Following treatment, human leukemia cell engraftment in the injected right femur was measured by FACS analysis for human CD45^+CD19^−CD33^+ cells. […] Six weeks later, human leukemia cell engraftment in the injected right femur was measured by FACS analysis for human CD45^+CD19^−CD33^+cells. […]
To assess tigecycline in mouse models of primary AML, primary human AML cells were isolated form a fresh peripheral blood sample from a patient with AML. A frozen aliquot was thawed, counted and resuspended in PBS. […]

[3] = 50 mg/kg or 100 mg/kg twice daily i.p., 14 days

Question: How did the “reduction of clonogenic growth” value [1] turn out when CN(C)c1cc(NC(=O)CNC(C)(C)C)c(O)c2c1C[C@H]1C[C@H]3[C@H](N(C)C)C(O)=C(C(N)=O)C(=O)[C@@]3(O)C(O)=C1C2=O [tigecycline] was run?
Answer: The value was 93±4%.

Question: What about the “expression of Cox-1 and Cox-2 relative to Cox-4 in tumours” value ([2]; 50 mg/kg bid for 5 days, western blotting) of the same compound?
Answer: The value was “preferential decreased expression”.

Question: And the “decrease of tumor mass compared to vehicle control” value [2, 3]?
Answer: The value was “up to 70%”.

Question: What about the “decrease of tumor volume compared to vehicle control” value [2, 3] of the same compound?
Answer: The value was “up to 70%”.

Question: And the “toxicity in treated mice” value ([2]; mouse, in vivo)?
Answer: Its value is “No evidence of toxicity”.

Question: What about the “engraftment of human AML primary cells (CD45+CD33+CD19-)” value (primary human AML cells; 100 mg/kg i.p. daily for three weeks) of the same compound?
Answer: Its value is “significantly decreased”.

Question: And the “toxicity in treated mice” value (primary human AML cells; mouse, in vivo)?
Answer: The value was “without gross organ toxicity or loss of body weight”.
